Laboratory results reported in PubChem BioAssay (NCI).
Values joined by “and” are separate entries in the source; they are usually repeats but may differ in a detail not shown here. Identical values can stand only once.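 Results reflect a 48-hour exposure of cells in 96-well plates to compound at five concentrations. GI50 marks 50% less growth. TGI: total growth inhibition.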

Experiments:
Test in all cases: growth of human tumour cells (NCI), 48 h
SF-268 CNS = test system: SF-268 CNS
HOP-92 NSCLC = test system: HOP-92 NSCLC
HS 578T breast = test system: HS 578T breast
SW-620 colon = test system: SW-620 colon
HOP-62 NSCLC = test system: HOP-62 NSCLC
IGROV1 ovarian = test system: IGROV1 ovarian
SF-539 CNS = test system: SF-539 CNS
TK-10 renal = test system: TK-10 renal
OVCAR-8 ovarian = test system: OVCAR-8 ovarian
NCI/ADR-RES ovarian = test system: NCI/ADR-RES ovarian

| Structure (SMILES) | TGI (SF-268 CNS) | TGI (HOP-92 NSCLC) | TGI (HS 578T breast) [µM] | TGI (SW-620 colon) [µM] | TGI (HOP-62 NSCLC) [µM] | TGI (IGROV1 ovarian) [µM] | TGI (SF-539 CNS) | TGI (TK-10 renal) [µM] | TGI (OVCAR-8 ovarian) [µM] | GI50 (NCI/ADR-RES ovarian) [µM] | TGI (NCI/ADR-RES ovarian) [µM] | GI50 (HOP-92 NSCLC) [µM] | GI50 (HS 578T breast) [µM] | GI50 (SW-620 colon) [µM] | GI50 (HOP-62 NSCLC) [µM] | GI50 (IGROV1 ovarian) [µM] | GI50 (SF-539 CNS) [µM] | GI50 (TK-10 renal) [µM] | GI50 (OVCAR-8 ovarian) [µM] | GI50 (SF-268 CNS) [µM] |
| --- | --- | --- | --- | --- | --- | --- | --- | --- | --- | --- | --- | --- | --- | --- | --- | --- | --- | --- | --- | --- |
| CC[C@@]1(O)C(=O)OCc2c1cc1n(c2=O)Cc2c-1nc1ccccc1c2/C=N\NC(=O)C(N)Cc1cnc[nH]1 (stereo not given in full) | > 25.8 µM | > 41.5 µM | > 100 | > 100 | 0.299 | > 54.7 | 0.538 µM | > 100 | 16.1 |  |  |  |  |  |  |  |  |  |  |  |
| CCOC(=O)c1c(C)[nH]c(/C=C2\N=C(c3ccc[nH]3)C=C2OC)c1C |  | 0.0792 µM | 0.925 | 1.33 | 1.17 | 1.09 | 1.28 µM | 1.75 | 1.61 | 0.0457 | 3.45 | 0.0323 | 0.0577 | < 0.01 | 0.0406 | 0.0305 | 0.0606 | 0.0307 | 0.0358 |  |
| O=C1C=C(N2CC2)C(=O)C=C1N1CC1 | 0.299 µM and 1.5 µM | 0.576 µM and 1.56 µM | 8.14 | 0.848 | 0.738 | 2.48 | 0.267 µM and 0.268 µM | 0.772 | 4.31 | 0.0241 |  | 0.152 |  | 0.0147 | 0.0687 |  | 0.0221 | 0.208 |  | 0.0109 |
| COC(=O)c1cc2c3c(cc(O)c2[nH]1)N(C(=O)C1Cc2cc(OC)c(OC)c(OC)c2N1)CC3CCl (stereo not given) | 0.646 µM |  |  | 0.132 |  | 0.98 | < 0.01 µM | < 0.01 | 0.014 | < 0.01 | > 100 |  |  | < 0.01 |  | < 0.01 | < 0.01 | < 0.01 | < 0.01 | < 0.01 |
| COc1cc(/C=C2\CN(S(=O)(=O)c3ccc(C)cc3)C/C(=C\c3cc(CN4CCCCC4)c(O)c(OC)c3)C2=O)cc(CN2CCCCC2)c1O |  | 3.19 µM | 4.5 |  |  |  | 3.31 µM | 3.63 |  | 1.22 | 3.77 | 1.55 | 1.92 |  |  |  | 1.74 | 1.98 |  |  |
| COc1ccc(Cl)cc1NC(=O)c1c(NC(=O)C(F)(F)C(F)(F)F)sc2c1CCCCC2 | > 100 µM | 0.947 µM | 7.54 | > 100 | 7 | > 100 |  |  | > 100 | 1.8 | 8.37 | 0.263 | 1.37 | 1.93 | 2.49 | 2.81 |  |  | 2.02 | 1.09 |
| Oc1ccc2ccccc2c1N=Nc1ccccn1 | > 100 µM | > 100 µM | > 52.8 | > 100 | > 100 | 8.14 | > 28.4 µM | > 86.2 | > 27.4 | 0.575 | 4.64 | 3.02 | 7.52 | 0.652 | 1.41 | 0.349 | 1.6 | 1.53 | 0.447 | 0.554 |
| COc1ccc(CCCC(=O)O)c(C)c1 | > 100 µM | 90.8 µM | > 100 | > 100 | 75 | > 100 |  | > 100 | > 100 |  | > 100 |  |  |  |  |  |  |  |  |  |
| COc1cc2cc(C(=O)N3CC(CCl)c4c3cc(N(C)C)c3ccccc43)[nH]c2c(OC)c1OC (stereo not given) | 0.016 µM | > 53.9 µM | 0.135 | > 100 | 0.0529 |  | 0.0132 µM | > 100 | 0.0206 |  |  |  |  |  |  |  |  |  |  |  |
